Where a name gives a salt, the structure may show the parent alone.
biological target: T1, human NK1 receptors (Homo sapiens, UniProt P25103); assay: hNK1 binding ([3H]-Substance P competition on IM9 human lymphoblast cells); details: IM9 human lymphoblast cells endogenously expressing NK1 receptors, 1.5 nM [3H]-Substance P, 90 minutes at ambient temperature; pKi=-log Ki (Cheng-Prusoff)
T1 construct: IM9 human lymphoblast cells endogenously expressing NK1 receptors; endogenous in cells; host or cells: IM9 human lymphoblast cells (whole-cell preparation)
Protocol: The affinity of compounds of the invention was determined by competition experiments in the presence of [^3H]-Substance P (Sar-9, MetO2-11,2-propyl-3,4-3H). IM9 human lymphoblast cells endogenously expressing NK1 receptors are centrifuged and taken up in the incubation buffer containing 50 mM TRIS, 150 mM NaCl, 4 mM CaCl2, protease inhibitors at 1/100^e (Cocktail SIGMA P8340) and 0.2% BSA. The volume of incubation buffer is determined so as to obtain a concentration of 5×10^6 cells/ml. The cell preparation is then incubated together with 1.5 nM [^3H]-Substance P and the compound under test for 90 minutes at ambient temperature. Non-specific binding is determined in the presence of 1 μM GR 205171.
At the end of the incubation period, the samples are filtered through Unifilter GF/B type filters pretreated with PEI (0.1%) and washed several times with the filtration buffer (50 mM TRIS, 150 mM NaCl, 4 mM CaCl2). The radioactivity retained on the filters is measured by counting after addition of scintillation liquid to the filters. The counts are analysed by non-linear regression, allowing the isotherms to be plotted and the IC50 values to be determined. The latter are then converted into inhibition constants (Ki) by means of the Cheng-Prusoff equation: Ki=IC50/(1+L/KD) wherein L is the concentration of [^3H]-Substance P and KD is the dissociation constant of [^3H]-Substance P for human NK1 receptors (0.53 nM). The results are expressed as pKi(−log Ki).

T1 sequence (P25103 whole entry): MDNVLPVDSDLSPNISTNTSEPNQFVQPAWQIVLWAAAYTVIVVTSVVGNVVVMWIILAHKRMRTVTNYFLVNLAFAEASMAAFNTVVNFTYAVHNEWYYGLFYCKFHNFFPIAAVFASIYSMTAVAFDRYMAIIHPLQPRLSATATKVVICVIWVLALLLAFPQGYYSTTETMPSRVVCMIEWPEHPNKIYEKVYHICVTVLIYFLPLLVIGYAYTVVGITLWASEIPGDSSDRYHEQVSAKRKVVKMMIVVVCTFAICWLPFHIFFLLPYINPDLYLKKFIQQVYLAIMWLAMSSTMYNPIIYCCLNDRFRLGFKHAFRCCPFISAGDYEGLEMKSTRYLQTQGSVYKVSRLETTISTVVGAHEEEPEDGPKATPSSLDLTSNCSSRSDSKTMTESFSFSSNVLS

Compound | Ki
NC1CCN([C@@H]2c3ccccc3OC[C@H]2OCc2cc(Br)cc(Br)c2)CC1 (relative stereo) [Example 9, trans-1-{3-[(3,5-Dibromobenzyl)oxy]-3,4-dihydro-2H-chromen-4-yl}piperidin-4-amine dihydrochloride] | 11 nM
Brc1cc(Br)cc(CO[C@@H]2CCCc3ccccc3[C@H]2N2CCNCC2)c1 (relative stereo) [Example 7, trans-1-{6-[(3,5-Dibromobenzyl)oxy]-6,7,8,9-tetrahydro-5H-benzo-[7]annulen-5-yl}piperazine dihydrochloride] | 7.24 nM
Brc1cc(Br)cc(CO[C@@H]2CCOc3ccccc3[C@H]2N2CCNCC2)c1 (relative stereo) [Example 8, trans-1-{4-[(3,5-Dibromobenzyl)oxy]-2,3,4,5-tetrahydro-1-benzoxepin-5-yl}piperazine dihydrochloride] | 28.8 nM
FC(F)(F)c1cc(CO[C@@H]2Cc3ccccc3[C@H]2N2CCNCC2)cc(C(F)(F)F)c1 (relative stereo) [Example 40, trans-1-(2-{[3,5-Bis(trifluoromethyl)benzyl]oxy}-2,3-dihydro-1H-inden-1-yl)piperazine dihydrochloride] | 141 nM
COc1ccc2c(c1)CC[C@@H](OCc1cc(Br)cc(Br)c1)[C@@H]2N1CCNCC1 (relative stereo) [Example 13, trans-1-{2-[(3,5-Dibromobenzyl)oxy]-6-methoxy-1,2,3,4-tetrahydro-naphth-1-yl}piperazine dihydrochloride] | 251 nM
Brc1cc(Br)cc(COC2CCc3ccccc3C2N2CCCNCC2)c1 (single isomer, unassigned; (-)) [Example 19, (−) isomer of trans-1-{2-[(3,5-dibromobenzyl)oxy]-1,2,3,4-tetra-hydronaphth-1-yl}-1,4-diazepane dihydrochloride] | 39.8 nM
Brc1cc(Br)cc(CO[C@@H]2COc3ccccc3[C@H]2N2CCNCC2)c1 (racemic) [Example 4, trans-1-{3-[(3,5-Dibromobenzyl)oxy]-3,4-dihydro-2H-chromen-4-yl}piperazine dihydrochloride] | 5.62 nM
Brc1cc(Br)cc(CO[C@@H]2Cc3ccccc3[C@H]2N2CCNCC2)c1 (racemic) [Example 1, trans-1-{2-[(3,5-Dibromobenzyl)oxy]-2,3-dihydro-1H-inden-1-yl}-piperazine dihydrochloride] | 145 nM
Brc1cc(Br)cc(CO[C@@H]2CCc3ccccc3[C@H]2N2CCNCC2)c1 (racemic) [Example 15, trans-1-{2-[(3,5-Dibromobenzyl)oxy]-1,2,3,4-tetrahydronaphth-1-yl}piperazine dihydrochloride] | 33.1 nM

biological target: T2, serotonin (5-HTT) reuptake site (Rattus norvegicus, UniProt P31652); assay: Affinity for serotonin reuptake sites in the rat ([3H]-citalopram competition); type: binding; details: rat frontal cortex membranes, 0.7 nM [3H]-citalopram, 2 hours at 25° C.; pKi=-log Ki (Cheng-Prusoff); read-out: pKi r5-HTT (converted)
T2 construct: on rat frontal cortex membranes; from tissue; host or cells: rat frontal cortex membranes
Protocol: The affinity of the compounds for the serotonin (5-HTT) reuptake site is evaluated by competition experiments with [^3H]-citalopram on rat frontal cortex membranes. The cortices are homogenised using a Polytron in 40 volumes (weight/volume) of cold Tris-HCl (50 mM, pH 7.4) incubation buffer containing 120 mM NaCl and 5 mM KCl and are then centrifuged for a first time. The sediment is resuspended in the same buffer, incubated for 10 minutes at 37° C. and then re-centrifuged. The membranes are washed a further two times and the sediment is then resuspended in an appropriate volume of incubation buffer. The membranes are then incubated for 2 hours at 25° C. with the compound under test in the presence of 0.7 nM [^3H]-citalopram. Non-specific binding is determined with 10 μM fluoxetine. At the end of the incubation period, the samples are filtered through Unifilter GF/B type filters pretreated with PEI (0.5%) and washed several times with the incubation buffer. The radioactivity retained on the filters is counted after addition of scintillation liquid, with the aid of a scintillation counter. The isotherms obtained are analysed by non-linear regression to determine the IC50 values, which are converted into Ki using the Cheng-Prusoff equation: Ki=IC50/(1+L/kD) wherein L represents the concentration of radioligand and kD is the dissociation constant of [^3H]-citalopram on the serotonin reuptake site (0.7 nM). The results are expressed as pKi=−log Ki.

T2 sequence (P31652 whole entry): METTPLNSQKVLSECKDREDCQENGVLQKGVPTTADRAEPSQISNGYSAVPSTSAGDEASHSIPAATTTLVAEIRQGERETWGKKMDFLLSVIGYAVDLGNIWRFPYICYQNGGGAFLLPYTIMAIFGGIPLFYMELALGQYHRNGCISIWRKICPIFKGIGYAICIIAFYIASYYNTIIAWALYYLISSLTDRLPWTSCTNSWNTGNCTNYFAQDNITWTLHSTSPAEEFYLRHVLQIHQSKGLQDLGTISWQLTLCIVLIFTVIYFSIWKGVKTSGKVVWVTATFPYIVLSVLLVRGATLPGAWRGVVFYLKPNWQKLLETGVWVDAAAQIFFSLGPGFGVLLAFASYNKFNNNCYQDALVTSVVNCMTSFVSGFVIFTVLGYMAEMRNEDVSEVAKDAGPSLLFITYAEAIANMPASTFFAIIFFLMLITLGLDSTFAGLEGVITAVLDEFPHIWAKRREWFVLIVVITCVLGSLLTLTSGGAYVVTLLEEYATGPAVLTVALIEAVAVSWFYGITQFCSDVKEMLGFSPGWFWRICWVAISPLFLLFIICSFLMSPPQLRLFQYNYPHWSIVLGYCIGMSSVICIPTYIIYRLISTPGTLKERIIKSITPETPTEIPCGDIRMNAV

Compound | Ki
Clc1cc(Cl)cc(CO[C@@H]2COc3ccccc3[C@H]2N2CCNCC2)c1 (relative stereo) [Example 44, trans-1-{3-[(3,5-Dichlorobenzyl)oxy]-3,4-dihydro-2H-chromen-4-yl}-piperazine dihydrochloride] | 49 nM
Brc1cc(Br)cc(CO[C@@H]2Cc3ccccc3[C@@H]2N2CCNCC2)c1 [Example 21, 1-{(1S,2R)-2-[(3,5-Dibromobenzyl)oxy]-2,3-dihydro-1H-inden-1-yl}-piperazine dihydrochloride] | 12.3 nM
Fc1cc(F)cc(CO[C@@H]2Cc3ccccc3[C@@H]2N2CCNCC2)c1 [Example 36, 1-[(1S,2R)-2-[(3,5-Difluorobenzyl)oxy]-2,3-dihydro-1H-inden-1-yl]-piperazine dihydrochloride] | 1.07 nM
Brc1cc(Br)cc(CO[C@@H]2COc3ccccc3[C@H]2N2CCNCC2)c1 (racemic) [Example 4, trans-1-{3-[(3,5-Dibromobenzyl)oxy]-3,4-dihydro-2H-chromen-4-yl}piperazine dihydrochloride] | 79.4 nM
Brc1cc(Br)cc(CO[C@@H]2Cc3ccccc3[C@H]2N2CCNCC2)c1 (racemic) [Example 1, trans-1-{2-[(3,5-Dibromobenzyl)oxy]-2,3-dihydro-1H-inden-1-yl}-piperazine dihydrochloride] | 4.47 nM
Fc1cc(Cl)cc(CO[C@@H]2COc3ccccc3[C@H]2N2CCNCC2)c1 (relative stereo) [Example 47, trans-1-{3-(3-Chloro-5-fluorobenzyloxy)-3,4-dihydro-2H-chromen-4-yl}piperazine dihydrochloride] | 35.5 nM
COc1ccc2c(c1)[C@@H](N1CCNCC1)[C@H](OCc1cc(Cl)cc(Cl)c1)C2 (relative stereo) [Example 42, trans-1-{2-[(3,5-Dichlorobenzyl)oxy]-6-methoxy-2,3-dihydro-1H-inden-1-yl}piperazine dihydrochloride] | 19.5 nM
Cc1cc(C)cc(CO[C@@H]2Cc3ccccc3[C@@H]2N2CCNCC2)c1 [Example 38, 1-[(1S,2R)-2-[(3,5-Dimethylbenzyl)oxy]-2,3-dihydro-1H-inden-1-yl]-piperazine dihydrochloride] | 1.86 nM
